From patent US20240101576A1, “HETEROCYCLIC INHIBITORS OF EGFR AND/OR HER2, FOR USE IN THE TREATMENT OF CANCER” (Scorpion Therapeutics, Inc., priority 2020, published 2024)

Experiments:
Format in all cases: cell-based
[1] = molecular target: T1, EGFR exon 20 NPG Ins D770_N771 (Ba/F3 cells) (Homo sapiens, UniProt P00533, INS770NPG); experiment: Inhibitor activity on EGFR-dependent cell growth (CellTiter-Glo, 72 h), Ba/F3 EGFR exon 20 NPG Ins; details: read-out: BaF3 NPG IC50
T1 construct: expressed in transfected cells; host or cells: Ba/F3 (murine pro-B cells), retroviral transduction, puromycin selection, IL3-independent pool
T1 sequence (P00533 with tags, fused parts or gaps INS770NPG): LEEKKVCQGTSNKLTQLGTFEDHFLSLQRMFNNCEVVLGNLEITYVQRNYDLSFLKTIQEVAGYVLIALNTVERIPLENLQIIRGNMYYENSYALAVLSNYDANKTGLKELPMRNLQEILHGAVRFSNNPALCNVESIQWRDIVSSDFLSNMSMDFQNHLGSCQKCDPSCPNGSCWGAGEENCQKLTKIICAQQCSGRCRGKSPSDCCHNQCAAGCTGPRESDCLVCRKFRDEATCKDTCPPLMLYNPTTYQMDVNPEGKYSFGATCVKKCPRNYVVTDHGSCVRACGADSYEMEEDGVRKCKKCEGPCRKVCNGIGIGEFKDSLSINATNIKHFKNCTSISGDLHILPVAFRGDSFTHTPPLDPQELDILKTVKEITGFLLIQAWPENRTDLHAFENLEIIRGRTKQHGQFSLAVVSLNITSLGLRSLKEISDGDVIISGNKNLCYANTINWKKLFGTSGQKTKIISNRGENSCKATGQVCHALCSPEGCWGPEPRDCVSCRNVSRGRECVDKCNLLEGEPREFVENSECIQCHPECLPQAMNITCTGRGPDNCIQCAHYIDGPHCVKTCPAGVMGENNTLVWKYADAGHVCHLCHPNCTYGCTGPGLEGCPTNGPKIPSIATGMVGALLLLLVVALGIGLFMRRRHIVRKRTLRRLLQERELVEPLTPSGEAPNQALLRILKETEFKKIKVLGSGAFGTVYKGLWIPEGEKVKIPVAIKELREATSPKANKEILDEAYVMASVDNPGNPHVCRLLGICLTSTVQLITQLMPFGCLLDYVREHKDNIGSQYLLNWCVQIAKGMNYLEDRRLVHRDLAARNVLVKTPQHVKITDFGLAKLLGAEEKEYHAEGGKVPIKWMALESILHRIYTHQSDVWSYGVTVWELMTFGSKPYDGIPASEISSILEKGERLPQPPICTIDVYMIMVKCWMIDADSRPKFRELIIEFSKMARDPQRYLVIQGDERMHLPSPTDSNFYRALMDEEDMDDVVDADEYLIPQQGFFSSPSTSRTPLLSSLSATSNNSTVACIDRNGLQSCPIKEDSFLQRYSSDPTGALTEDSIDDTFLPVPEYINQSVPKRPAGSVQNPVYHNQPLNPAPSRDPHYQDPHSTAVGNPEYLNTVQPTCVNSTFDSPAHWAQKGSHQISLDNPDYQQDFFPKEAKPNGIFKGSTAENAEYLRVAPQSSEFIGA
Method in brief: (§1)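 IC50s derive from a sigmoidal dose–response fit of CellTiter-Glo signal. The signal was normalised between […]-treated cells and cell-free medium. Ba/F3 mutant-EGFR cells, seeded at 400–800/well depending on the line, had 72 h of exposure to a 10-point, 3-fold compound series.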

EGFR WT (Ba/F3 cells) = molecular target: T2, EGFR WT (Ba/F3 cells) (Homo sapiens, UniProt P00533); experiment: Inhibitor activity on EGFR-dependent cell growth (CellTiter-Glo, 72 h), Ba/F3 EGFR WT; details: read-out: BaF3 WT IC50
T2 construct: expressed in transfected cells; host or cells: Ba/F3 (murine pro-B cells), retroviral transduction, puromycin selection, maintained with EGF
Method in brief: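 This growth assay used Ba/F3 cells that depend on wild-type EGFR and are kept in EGF without IL3. Compounds were made up as 10 mM DMSO stocks and diluted 3-fold over 10 points. 120 nL went onto 600 cells/well. After 72 hours, 40 μL CellTiter-Glo was added and luminescence read on EnVision after 30 min.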

[2] = molecular target: T3, EGFR exon 20 FQEA Ins A763_V764 (Ba/F3 cells) (Homo sapiens, UniProt P00533, INS763FQEA); experiment: Inhibitor activity on EGFR-dependent cell growth (CellTiter-Glo, 72 h), Ba/F3 EGFR exon 20 FQEA Ins; details: read-out: BaF3 FQEA IC50
T3 construct: expressed in transfected cells; host or cells: Ba/F3 (murine pro-B cells), retroviral transduction, puromycin selection, IL3-independent pool
T3 sequence (P00533 with tags, fused parts or gaps INS763FQEA): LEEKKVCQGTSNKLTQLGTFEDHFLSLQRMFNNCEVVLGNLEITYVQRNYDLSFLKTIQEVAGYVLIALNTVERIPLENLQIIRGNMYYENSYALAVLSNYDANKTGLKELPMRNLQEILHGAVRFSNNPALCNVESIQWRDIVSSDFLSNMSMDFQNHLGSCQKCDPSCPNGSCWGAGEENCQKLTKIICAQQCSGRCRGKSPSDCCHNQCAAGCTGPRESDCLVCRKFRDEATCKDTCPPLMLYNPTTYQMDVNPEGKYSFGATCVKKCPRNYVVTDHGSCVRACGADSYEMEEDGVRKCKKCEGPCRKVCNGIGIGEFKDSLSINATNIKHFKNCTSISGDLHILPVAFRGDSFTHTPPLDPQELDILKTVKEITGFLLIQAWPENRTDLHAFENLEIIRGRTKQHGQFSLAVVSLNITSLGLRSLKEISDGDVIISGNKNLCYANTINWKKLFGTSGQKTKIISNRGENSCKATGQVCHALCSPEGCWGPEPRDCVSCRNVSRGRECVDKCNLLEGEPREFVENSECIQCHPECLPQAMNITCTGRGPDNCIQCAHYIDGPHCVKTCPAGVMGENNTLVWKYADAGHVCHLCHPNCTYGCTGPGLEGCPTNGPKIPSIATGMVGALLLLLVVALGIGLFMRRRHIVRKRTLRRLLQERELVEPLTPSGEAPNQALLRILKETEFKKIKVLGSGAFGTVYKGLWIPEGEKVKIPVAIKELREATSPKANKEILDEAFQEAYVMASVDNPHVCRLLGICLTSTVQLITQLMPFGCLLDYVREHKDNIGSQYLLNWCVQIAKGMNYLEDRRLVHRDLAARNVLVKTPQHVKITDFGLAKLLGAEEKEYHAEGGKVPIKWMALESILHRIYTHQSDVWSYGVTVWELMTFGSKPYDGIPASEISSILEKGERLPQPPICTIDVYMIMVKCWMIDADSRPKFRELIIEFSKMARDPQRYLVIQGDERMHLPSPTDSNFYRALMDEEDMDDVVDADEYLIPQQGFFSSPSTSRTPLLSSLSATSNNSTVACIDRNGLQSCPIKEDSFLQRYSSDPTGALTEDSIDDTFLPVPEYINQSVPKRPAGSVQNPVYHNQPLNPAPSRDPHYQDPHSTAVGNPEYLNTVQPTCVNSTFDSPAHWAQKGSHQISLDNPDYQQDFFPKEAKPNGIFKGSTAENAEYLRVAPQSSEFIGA
Method in brief: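 For each mutant line, growth depends on EGFR signalling in the absence of IL3. Density per well: 400 for L858R, 600 for the C797S double mutant, 800 for exon 19del and FQEA. Ten threefold dilutions were applied for 72 h. %Inhibition = 100×(DMSO − sample)/(DMSO − medium blank).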

[3] = molecular target: T4, EGFR exon 20 ASV Ins V769_D770 (Ba/F3 cells) (Homo sapiens, UniProt P00533, INS769ASV); experiment: Inhibitor activity on EGFR-dependent cell growth (CellTiter-Glo, 72 h), Ba/F3 EGFR exon 20 ASV Ins; details: read-out: BaF3 ASV IC50
T4 construct: expressed in transfected cells; host or cells: Ba/F3 (murine pro-B cells), retroviral transduction, puromycin selection, IL3-independent pool
T4 sequence (P00533 with tags, fused parts or gaps INS769ASV): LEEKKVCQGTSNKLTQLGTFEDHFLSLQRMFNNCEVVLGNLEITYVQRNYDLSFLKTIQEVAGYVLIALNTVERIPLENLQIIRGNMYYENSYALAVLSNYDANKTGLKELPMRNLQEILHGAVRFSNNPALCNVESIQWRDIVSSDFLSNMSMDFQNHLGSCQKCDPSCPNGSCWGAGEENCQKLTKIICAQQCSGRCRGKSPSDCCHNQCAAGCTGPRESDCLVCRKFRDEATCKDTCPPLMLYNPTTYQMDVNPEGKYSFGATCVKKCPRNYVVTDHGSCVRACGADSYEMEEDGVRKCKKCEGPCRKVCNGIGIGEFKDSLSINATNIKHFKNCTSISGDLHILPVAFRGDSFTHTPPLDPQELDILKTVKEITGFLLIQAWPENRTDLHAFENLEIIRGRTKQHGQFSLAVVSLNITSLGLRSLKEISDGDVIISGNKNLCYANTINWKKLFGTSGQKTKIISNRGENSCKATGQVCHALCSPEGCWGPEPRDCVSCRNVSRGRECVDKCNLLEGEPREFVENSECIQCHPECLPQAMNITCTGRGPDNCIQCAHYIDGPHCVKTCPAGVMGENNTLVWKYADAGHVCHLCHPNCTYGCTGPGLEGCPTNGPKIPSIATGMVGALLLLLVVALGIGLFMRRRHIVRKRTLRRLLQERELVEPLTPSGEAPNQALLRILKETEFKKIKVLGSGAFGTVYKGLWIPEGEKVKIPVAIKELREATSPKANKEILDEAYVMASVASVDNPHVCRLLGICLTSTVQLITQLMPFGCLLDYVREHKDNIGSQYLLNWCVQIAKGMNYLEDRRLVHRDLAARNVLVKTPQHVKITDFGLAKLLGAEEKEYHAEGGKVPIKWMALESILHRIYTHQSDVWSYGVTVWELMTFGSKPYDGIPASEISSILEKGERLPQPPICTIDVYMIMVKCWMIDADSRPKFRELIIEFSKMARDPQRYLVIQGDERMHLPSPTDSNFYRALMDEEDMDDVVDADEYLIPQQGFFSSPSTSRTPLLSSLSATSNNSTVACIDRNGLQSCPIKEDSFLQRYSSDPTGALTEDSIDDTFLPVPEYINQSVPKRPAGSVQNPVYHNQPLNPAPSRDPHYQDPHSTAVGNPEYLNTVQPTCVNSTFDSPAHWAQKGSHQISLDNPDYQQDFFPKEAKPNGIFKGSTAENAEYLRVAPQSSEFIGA
Method in brief: as §1

[4] = molecular target: T5, EGFR exon 20 SVD Ins D770_N771 (Ba/F3 cells) (Homo sapiens, UniProt P00533, INS770SVD); experiment: Inhibitor activity on EGFR-dependent cell growth (CellTiter-Glo, 72 h), Ba/F3 EGFR exon 20 SVD Ins; details: read-out: BaF3 SVD IC50
T5 construct: expressed in transfected cells; host or cells: Ba/F3 (murine pro-B cells), retroviral transduction, puromycin selection, IL3-independent pool
T5 sequence (P00533 with tags, fused parts or gaps INS770SVD): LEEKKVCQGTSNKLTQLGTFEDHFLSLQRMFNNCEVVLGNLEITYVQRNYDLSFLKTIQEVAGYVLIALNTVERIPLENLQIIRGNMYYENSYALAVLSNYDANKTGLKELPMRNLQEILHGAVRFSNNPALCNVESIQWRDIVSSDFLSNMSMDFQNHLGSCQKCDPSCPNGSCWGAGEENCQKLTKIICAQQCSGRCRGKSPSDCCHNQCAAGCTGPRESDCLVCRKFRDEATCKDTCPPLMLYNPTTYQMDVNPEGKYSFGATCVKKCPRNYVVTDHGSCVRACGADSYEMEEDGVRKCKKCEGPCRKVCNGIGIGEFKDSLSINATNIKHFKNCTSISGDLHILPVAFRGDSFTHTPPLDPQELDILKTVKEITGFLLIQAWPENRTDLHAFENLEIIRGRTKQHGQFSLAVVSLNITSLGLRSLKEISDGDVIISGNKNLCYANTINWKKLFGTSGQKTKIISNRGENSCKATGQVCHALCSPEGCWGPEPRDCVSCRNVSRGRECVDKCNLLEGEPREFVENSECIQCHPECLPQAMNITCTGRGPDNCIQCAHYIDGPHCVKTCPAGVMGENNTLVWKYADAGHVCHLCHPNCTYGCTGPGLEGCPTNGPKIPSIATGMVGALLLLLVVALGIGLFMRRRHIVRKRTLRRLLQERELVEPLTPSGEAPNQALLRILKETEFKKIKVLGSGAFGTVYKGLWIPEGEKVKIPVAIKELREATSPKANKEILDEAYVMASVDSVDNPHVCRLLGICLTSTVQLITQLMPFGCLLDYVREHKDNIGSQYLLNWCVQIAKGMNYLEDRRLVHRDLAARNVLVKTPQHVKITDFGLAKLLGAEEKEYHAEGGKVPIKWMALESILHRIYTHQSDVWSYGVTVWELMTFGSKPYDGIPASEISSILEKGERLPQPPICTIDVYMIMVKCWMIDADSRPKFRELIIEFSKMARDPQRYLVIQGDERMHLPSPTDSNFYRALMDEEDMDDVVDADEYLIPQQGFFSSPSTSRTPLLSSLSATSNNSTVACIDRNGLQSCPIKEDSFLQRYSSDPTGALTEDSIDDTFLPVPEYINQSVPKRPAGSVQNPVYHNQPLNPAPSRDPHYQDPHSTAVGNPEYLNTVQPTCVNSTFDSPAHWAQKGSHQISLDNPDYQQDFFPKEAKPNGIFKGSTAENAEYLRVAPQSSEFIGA
Method in brief: as §1

| SMILES | IC50 [1] | IC50 (EGFR WT (Ba/F3 cells)) | IC50 [2] | IC50 [3] | IC50 [4] |
| --- | --- | --- | --- | --- | --- |
| COCC[C@H]1CNC(=O)c2c1[nH]c(-c1ccncc1F)c2Nc1cccc(F)c1OC [421a] | 100 to 1000 nM | > 1000 nM | 100 to 1000 nM | 100 to 1000 nM | 100 to 1000 nM |
| COc1c(Cl)cccc1Nc1c(-c2ccncc2F)[nH]c2c1C(=O)NC[C@@H]2CC1COC1 [468a] | 100 to 1000 nM | > 1000 nM | > 1000 nM | > 1000 nM | > 1000 nM |
| COc1c(F)cccc1Nc1c(-c2ccncc2F)[nH]c2c1C(=O)NC[C@H]2CC1COC1 [469a] | > 1000 nM | > 1000 nM | > 1000 nM | > 1000 nM | > 1000 nM |
| COc1c(F)cccc1Nc1c(-c2ccncc2F)[nH]c2c1C(=O)NC[C@@H]2CC1COC1 [469b] | > 1000 nM | > 1000 nM | > 1000 nM | > 1000 nM | > 1000 nM |
| COc1c(F)cccc1Nc1c(-c2ccncc2F)[nH]c2c1C(=O)NC[C@@H]2C[C@H]1CCO1 [Compound 422c, (7S)-3-[(3-fluoro-2-methoxyphenyl)amino]-2-(3-fluoropyridin-4-yl)-7-[(2S)-oxetan-2-ylmethyl]-1H,5H,6H,7H-pyrrolo[3,2-c]pyridin-4-one] | 100 to 1000 nM | > 1000 nM | 100 to 1000 nM | 100 to 1000 nM | 100 to 1000 nM |
| COc1c(F)cccc1Nc1c(-c2ccncc2F)[nH]c2c1C(=O)NC[C@H]2C[C@H]1CCO1 [Compound 422d, (7R)-3-[(3-fluoro-2-methoxyphenyl)amino]-2-(3-fluoropyridin-4-yl)-7-[(2S)-oxetan-2-ylmethyl]-1H,5H,6H,7H-pyrrolo[3,2-c]pyridin-4-one] | < 100 nM | 100 to 1000 nM | 100 to 1000 nM | < 100 nM | < 100 nM |
| COc1c(Cl)cccc1Nc1c(-c2ccncc2F)[nH]c2c1C(=O)NC[C@@H]2CC(=O)N(C)C [Compound 488] | < 100 nM | > 1000 nM | 100 to 1000 nM | < 100 nM | < 100 nM |
| COc1c(F)cccc1Nc1c(-c2ccncc2F)[nH]c2c1C(=O)NC[C@@H]2C[C@@H]1COCCO1 [Compound 526, (7S)-7-[(2R)-1,4-dioxan-2-ylmethyl]-3-[(3-fluoro-2-methoxyphenyl)amino]-2-(3-fluoropyridin-4-yl)-1H,5H,6H,7H-pyrrolo[3,2-c]pyridin-4-one] | 100 to 1000 nM | > 1000 nM | 100 to 1000 nM | 100 to 1000 nM | 100 to 1000 nM |
| COc1c(Cl)cccc1Nc1c(-c2ccnc3cccnc23)[nH]c2c1C(=O)NCC2 [Compound 683, 3-[(3-chloro-2-methoxyphenyl)amino]-2-(1,5-naphthyridin-4-yl)-1H,5H,6H,7H-pyrrolo[3,2-c]pyridin-4-one] | < 100 nM | 100 to 1000 nM | < 100 nM | < 100 nM | < 100 nM |
| COc1c(Cl)cc(F)cc1Nc1c(-c2ccnc(N)n2)[nH]c2c1C(=O)NCC2 [Compound 714, 2-(2-aminopyrimidin-4-yl)-3-[(3-chloro-5-fluoro-2-methoxyphenyl)amino]-1H,5H,6H,7H-pyrrolo[3,2-c]pyridin-4-one; trifluoroacetic acid] | < 100 nM | > 1000 nM | 100 to 1000 nM | 100 to 1000 nM | 100 to 1000 nM |
| CSc1c(F)cccc1Nc1c(-c2ccnc(N)n2)[nH]c2c1C(=O)NCC2 [Compound 716, 2-(2-aminopyrimidin-4-yl)-3-[[3-fluoro-2-(methylsulfanyl)phenyl]amino]-1H,5H,6H,7H-pyrrolo[3,2-c]pyridin-4-one; trifluoroacetic acid] | 100 to 1000 nM | > 1000 nM | 100 to 1000 nM | 100 to 1000 nM | 100 to 1000 nM |
| COCC[C@H]1CNC(=O)c2c1[nH]c(-c1ccnc(N)n1)c2Nc1cccc(Cl)c1OC [Compound 727, (7S)-2-(2-aminopyrimidin-4-yl)-3-[(3-chloro-2-methoxyphenyl)amino]-7-(2-methoxyethyl)-1H,5H,6H,7H-pyrrolo[3,2-c]pyridin-4-one] | < 100 nM | 100 to 1000 nM | < 100 nM | < 100 nM | < 100 nM |
| COCC[C@@H]1CNC(=O)c2c1[nH]c(-c1ccncc1F)c2Nc1cccc(Cl)c1OC [Compound 746] | < 100 nM | 100 to 1000 nM | < 100 nM |  |  |
| COc1c(Cl)cccc1Nc1c(-c2ccnc3ccc(OC4(C)CC4)nc23)[nH]c2c1C(=O)NCC2 [Compound 767, 3-[(3-chloro-2-methoxyphenyl)amino]-2-[6-(1-methylcyclopropoxy)-1,5-naphthyridin-4-yl]-1H,5H,6H,7H-pyrrolo[3,2-c]pyridin-4-one] | < 100 nM | < 100 nM | < 100 nM | < 100 nM | < 100 nM |
| COc1c(Cl)cccc1Nc1c(-c2ccnc(Nc3ccn(C)n3)n2)[nH]c2c1C(=O)NCC2 [compound 509, 3-[(3-chloro-2-methoxyphenyl)amino]-2-{2-[(1-methylpyrazol-3-yl)amino]pyrimidin-4-yl}-1H,5H,6H,7H-pyrrolo[3,2-c]pyridin-4-one] | < 100 nM | < 100 nM | < 100 nM | < 100 nM | < 100 nM |
| COc1c(F)cccc1Nc1c(-c2ccnc(Nc3nnn(C)c3C)n2)[nH]c2c1C(=O)NCC2 [compound 608, 2-{2-[(1,5-dimethyl-1,2,3-triazol-4-yl)amino]pyrimidin-4-yl}-3-[(3-fluoro-2-methoxyphenyl)amino]-1H,5H,6H,7H-pyrrolo[3,2-c]pyridin-4-one] | > 1000 nM | > 1000 nM |  | > 1000 nM | > 1000 nM |
| C=CC(=O)N1CCC2(CC1)CNC(=O)c1c2[nH]c(-c2ccnc(C)n2)c1Nc1cc(F)cc(Cl)c1OC [compound 642] | < 100 nM | 100 to 1000 nM |  | < 100 nM | < 100 nM |
| C=CC(=O)NCC[C@H]1CNC(=O)c2c1[nH]c(-c1ccnc(C)n1)c2Nc1cccc(Cl)c1OC [compound 653] | 100 to 1000 nM | > 1000 nM |  | 100 to 1000 nM | 100 to 1000 nM |
| C=CC(=O)NCC[C@@H]1CNC(=O)c2c1[nH]c(-c1ccnc(C)n1)c2Nc1cccc(Cl)c1OC [compound 654] | < 100 nM | 100 to 1000 nM |  | < 100 nM | < 100 nM |
| COc1c(Cl)cccc1Nc1c(-c2ccnc(C)n2)[nH]c2c(C[C@H]3COCCO3)c[nH]c(=O)c12 [compound 659] | < 100 nM | > 1000 nM |  | < 100 nM | < 100 nM |
| COc1c(Nc2c(-c3ccnc(N)n3)[nH]c3c2C(=O)NCC3)ccc(F)c1Cl [compound 713, 2-(2-aminopyrimidin-4-yl)-3-[(3-chloro-4-fluoro-2-methoxyphenyl)amino]-1H,5H,6H,7H-pyrrolo[3,2-c]pyridin-4-one] | 100 to 1000 nM | > 1000 nM | > 1000 nM | 100 to 1000 nM | 100 to 1000 nM |
| COc1c(Cl)cccc1Nc1c(-c2ccnc(NC[C@@H]3CCO3)n2)[nH]c2c1C(=O)NCC2 [compound 719] | 100 to 1000 nM | > 1000 nM | > 1000 nM | 100 to 1000 nM | > 1000 nM |
| COc1c(Cl)cccc1Nc1c(-c2ccnc3ccc(OC4COC4)nc23)[nH]c2c1C(=O)NCC2 [compound 732, 3-[(3-chloro-2-methoxyphenyl)amino]-2-[6-(oxetan-3-yloxy)-1,5-naphthyridin-4-yl]-1H,5H,6H,7H-pyrrolo[3,2-c]pyridin-4-one] | < 100 nM | < 100 nM | < 100 nM | < 100 nM | < 100 nM |
| COc1c(Cl)cccc1Nc1c(-c2ccnc3ccc(OC[C@H]4CCO4)nc23)[nH]c2c1C(=O)NCC2 [compound 734, 3-[(3-chloro-2-methoxyphenyl)amino]-2-[6-[(2R)-oxetan-2-ylmethoxy]-1,5-naphthyridin-4-yl]-1H,5H,6H,7H-pyrrolo[3,2-c]pyridin-4-one] | < 100 nM | 100 to 1000 nM | < 100 nM | < 100 nM | < 100 nM |
| COc1c(Cl)cccc1Nc1c(-c2ccnc3ccc(OC[C@@H]4CCO4)nc23)[nH]c2c1C(=O)NCC2 [compound 735, 3-[(3-chloro-2-methoxyphenyl)amino]-2-[6-[(2S)-oxetan-2-ylmethoxy]-1,5-naphthyridin-4-yl]-1H,5H,6H, 7H-pyrrolo[3,2-c]pyridin-4-one] | < 100 nM | 100 to 1000 nM | < 100 nM | < 100 nM | < 100 nM |
